This passage reports activity coefficient results from the NIST ThermoML archive (doi:10.1016/j.jct.2011.11.021).

Numbers after ± are expanded uncertainties.

A short description of one series: activity coefficient (dimensionless); of the first substance listed, at infinite dilution; xn = mol fraction of the nth substance listed. Particulars: 318.15 K; Liquid; Chromatography; x1 = 0.
Regarding `CCCCCCCCC` [nonane] + COCC[N+]1(C)CCOCC1.O=S(=O)([N-]S(=O)(=O)C(F)(F)F)C(F)(F)F, the activity coefficient stood at 125 ± 9.
Consider `C1CCCCC1` [cyclohexane] + COCC[N+]1(C)CCOCC1.O=S(=O)([N-]S(=O)(=O)C(F)(F)F)C(F)(F)F, for which the activity coefficient is 18.8 ± 1.3.
On to `C1CCOC1` [tetrahydrofuran] + COCC[N+]1(C)CCOCC1.O=S(=O)([N-]S(=O)(=O)C(F)(F)F)C(F)(F)F, for which the activity coefficient turned out to be 0.858 ± 0.055.
The same measure, in the same setting: next, `Cc1ccccc1` [toluene] + COCC[N+]1(C)CCOCC1.O=S(=O)([N-]S(=O)(=O)C(F)(F)F)C(F)(F)F: 2.01 ± 0.14.
For the compound `CCCC=O` [butanal] + COCC[N+]1(C)CCOCC1.O=S(=O)([N-]S(=O)(=O)C(F)(F)F)C(F)(F)F, the activity coefficient was found to be 0.871 ± 0.056.
For `C=CCCCCCCCC` [1-decene] + COCC[N+]1(C)CCOCC1.O=S(=O)([N-]S(=O)(=O)C(F)(F)F)C(F)(F)F, the activity coefficient was determined as 87.8 ± 6.
As to `CCCO` [propan-1-ol] + COCC[N+]1(C)CCOCC1.O=S(=O)([N-]S(=O)(=O)C(F)(F)F)C(F)(F)F, the activity coefficient worked out at 2.39 ± 0.16.
As to `C1=CCCCC1` [cyclohexene] + COCC[N+]1(C)CCOCC1.O=S(=O)([N-]S(=O)(=O)C(F)(F)F)C(F)(F)F, the activity coefficient was 9.14 ± 0.62.
Still for that read-out and setting: the result for `CCCCCC` [hexane] + COCC[N+]1(C)CCOCC1.O=S(=O)([N-]S(=O)(=O)C(F)(F)F)C(F)(F)F reads 36.1 ± 2.5; that for `C=CCCCCCC` [oct-1-ene] + COCC[N+]1(C)CCOCC1.O=S(=O)([N-]S(=O)(=O)C(F)(F)F)C(F)(F)F, 38.6 ± 2.6; that for `CCC(=O)CC` [pentan-3-one] + COCC[N+]1(C)CCOCC1.O=S(=O)([N-]S(=O)(=O)C(F)(F)F)C(F)(F)F, 0.895 ± 0.057.
Same read-out and setting: next, `CCC(C)(C)C` [2,2-dimethylbutane] + COCC[N+]1(C)CCOCC1.O=S(=O)([N-]S(=O)(=O)C(F)(F)F)C(F)(F)F: 32.4 ± 2.2; `C1CCCC1` [cyclopentane] + COCC[N+]1(C)CCOCC1.O=S(=O)([N-]S(=O)(=O)C(F)(F)F)C(F)(F)F: 12.2 ± 0.8.
On the same count and under the same terms, next, `CCOC(C)=O` [ethyl acetate] + COCC[N+]1(C)CCOCC1.O=S(=O)([N-]S(=O)(=O)C(F)(F)F)C(F)(F)F: 0.984 ± 0.062; `Cc1cccc(C)c1` [1,3-dimethylbenzene] + COCC[N+]1(C)CCOCC1.O=S(=O)([N-]S(=O)(=O)C(F)(F)F)C(F)(F)F: 3.05 ± 0.21.
Turning to `C=CCCCCC` [1-heptene] + COCC[N+]1(C)CCOCC1.O=S(=O)([N-]S(=O)(=O)C(F)(F)F)C(F)(F)F, the activity coefficient is 24.9 ± 1.7.
`COC(C)=O` [methyl ethanoate] + COCC[N+]1(C)CCOCC1.O=S(=O)([N-]S(=O)(=O)C(F)(F)F)C(F)(F)F: the activity coefficient is 0.684 ± 0.046.

The same series, now with this note: 328.15 K; Liquid; Chromatography; x1 = 0.
With `CCCCCCCCC` [nonane] + COCC[N+]1(C)CCOCC1.O=S(=O)([N-]S(=O)(=O)C(F)(F)F)C(F)(F)F, the activity coefficient turned out to be 108 ± 7.
On the same count and under the same terms, the result for `C1CCCCC1` [cyclohexane] + COCC[N+]1(C)CCOCC1.O=S(=O)([N-]S(=O)(=O)C(F)(F)F)C(F)(F)F reads 17 ± 1.2; that for `C1CCOC1` [tetrahydrofuran] + COCC[N+]1(C)CCOCC1.O=S(=O)([N-]S(=O)(=O)C(F)(F)F)C(F)(F)F, 0.867 ± 0.055.
Same read-out and setting: the result for `Cc1ccccc1` [toluene] + COCC[N+]1(C)CCOCC1.O=S(=O)([N-]S(=O)(=O)C(F)(F)F)C(F)(F)F reads 2.01 ± 0.14; that for `CCCC=O` [butanal] + COCC[N+]1(C)CCOCC1.O=S(=O)([N-]S(=O)(=O)C(F)(F)F)C(F)(F)F, 0.884 ± 0.056; that for `C=CCCCCCCCC` [1-decene] + COCC[N+]1(C)CCOCC1.O=S(=O)([N-]S(=O)(=O)C(F)(F)F)C(F)(F)F, 78.8 ± 5.4.
With `CCC[N+](=O)[O-]` [1-nitropropane] + COCC[N+]1(C)CCOCC1.O=S(=O)([N-]S(=O)(=O)C(F)(F)F)C(F)(F)F, the activity coefficient turned out to be 0.791 ± 0.051.
On the same count and under the same terms, next, `CCCO` [propan-1-ol] + COCC[N+]1(C)CCOCC1.O=S(=O)([N-]S(=O)(=O)C(F)(F)F)C(F)(F)F: 2.14 ± 0.15.
`C1=CCCCC1` [cyclohexene] + COCC[N+]1(C)CCOCC1.O=S(=O)([N-]S(=O)(=O)C(F)(F)F)C(F)(F)F: the activity coefficient turned out to be 8.62 ± 0.59.
For `CCCCCC` [hexane] + COCC[N+]1(C)CCOCC1.O=S(=O)([N-]S(=O)(=O)C(F)(F)F)C(F)(F)F, the activity coefficient amounted to 32.6 ± 2.2.
Turning to `C=CCCCCCC` [oct-1-ene] + COCC[N+]1(C)CCOCC1.O=S(=O)([N-]S(=O)(=O)C(F)(F)F)C(F)(F)F, the activity coefficient stood at 34.9 ± 2.4.
Same read-out and setting: next, `CCC(=O)CC` [pentan-3-one] + COCC[N+]1(C)CCOCC1.O=S(=O)([N-]S(=O)(=O)C(F)(F)F)C(F)(F)F: 0.912 ± 0.058; `CCC(C)(C)C` [2,2-dimethylbutane] + COCC[N+]1(C)CCOCC1.O=S(=O)([N-]S(=O)(=O)C(F)(F)F)C(F)(F)F: 28.4 ± 1.9; `C1CCCC1` [cyclopentane] + COCC[N+]1(C)CCOCC1.O=S(=O)([N-]S(=O)(=O)C(F)(F)F)C(F)(F)F: 11.2 ± 0.8.
The same measure, in the same setting: the result for `CCOC(C)=O` [ethyl acetate] + COCC[N+]1(C)CCOCC1.O=S(=O)([N-]S(=O)(=O)C(F)(F)F)C(F)(F)F reads 1 ± 0.06; that for `Cc1cccc(C)c1` [1,3-dimethylbenzene] + COCC[N+]1(C)CCOCC1.O=S(=O)([N-]S(=O)(=O)C(F)(F)F)C(F)(F)F, 3.02 ± 0.21; that for `C=CCCCCC` [1-heptene] + COCC[N+]1(C)CCOCC1.O=S(=O)([N-]S(=O)(=O)C(F)(F)F)C(F)(F)F, 23 ± 1.6.
Consider `COC(C)=O` [methyl ethanoate] + COCC[N+]1(C)CCOCC1.O=S(=O)([N-]S(=O)(=O)C(F)(F)F)C(F)(F)F, for which the activity coefficient was found to be 0.7 ± 0.047.

Still in this series, the particulars now being: 338.15 K; Liquid; Chromatography; x1 = 0.
`CCCCCCCCC` [nonane] + COCC[N+]1(C)CCOCC1.O=S(=O)([N-]S(=O)(=O)C(F)(F)F)C(F)(F)F: the activity coefficient came out at 95.8 ± 6.6.
On the same count and under the same terms, next, `C1CCCCC1` [cyclohexane] + COCC[N+]1(C)CCOCC1.O=S(=O)([N-]S(=O)(=O)C(F)(F)F)C(F)(F)F: 15.6 ± 1.1; `C1CCOC1` [tetrahydrofuran] + COCC[N+]1(C)CCOCC1.O=S(=O)([N-]S(=O)(=O)C(F)(F)F)C(F)(F)F: 0.873 ± 0.056; `Cc1ccccc1` [toluene] + COCC[N+]1(C)CCOCC1.O=S(=O)([N-]S(=O)(=O)C(F)(F)F)C(F)(F)F: 2 ± 0.14.
Same read-out and setting: the result for `CCCC=O` [butanal] + COCC[N+]1(C)CCOCC1.O=S(=O)([N-]S(=O)(=O)C(F)(F)F)C(F)(F)F reads 0.891 ± 0.057; that for `C=CCCCCCCCC` [1-decene] + COCC[N+]1(C)CCOCC1.O=S(=O)([N-]S(=O)(=O)C(F)(F)F)C(F)(F)F, 72.1 ± 4.9.
Still for that read-out and setting: next, `CCC[N+](=O)[O-]` [1-nitropropane] + COCC[N+]1(C)CCOCC1.O=S(=O)([N-]S(=O)(=O)C(F)(F)F)C(F)(F)F: 0.787 ± 0.051.
Regarding `CCCO` [propan-1-ol] + COCC[N+]1(C)CCOCC1.O=S(=O)([N-]S(=O)(=O)C(F)(F)F)C(F)(F)F, the activity coefficient is 1.96 ± 0.13.
Consider `C1=CCCCC1` [cyclohexene] + COCC[N+]1(C)CCOCC1.O=S(=O)([N-]S(=O)(=O)C(F)(F)F)C(F)(F)F, for which the activity coefficient worked out at 8.21 ± 0.56.
Same read-out and setting: the result for `CCCCCC` [hexane] + COCC[N+]1(C)CCOCC1.O=S(=O)([N-]S(=O)(=O)C(F)(F)F)C(F)(F)F reads 29.8 ± 2.
As for `C=CCCCCCC` [oct-1-ene] + COCC[N+]1(C)CCOCC1.O=S(=O)([N-]S(=O)(=O)C(F)(F)F)C(F)(F)F, the activity coefficient worked out at 32.5 ± 2.2.
The same measure, in the same setting: next, `CCC(=O)CC` [pentan-3-one] + COCC[N+]1(C)CCOCC1.O=S(=O)([N-]S(=O)(=O)C(F)(F)F)C(F)(F)F: 0.927 ± 0.059; `CCC(C)(C)C` [2,2-dimethylbutane] + COCC[N+]1(C)CCOCC1.O=S(=O)([N-]S(=O)(=O)C(F)(F)F)C(F)(F)F: 25.7 ± 1.8.
As for `C1CCCC1` [cyclopentane] + COCC[N+]1(C)CCOCC1.O=S(=O)([N-]S(=O)(=O)C(F)(F)F)C(F)(F)F, the activity coefficient stood at 10.4 ± 0.7.
Take `CCOC(C)=O` [ethyl acetate] + COCC[N+]1(C)CCOCC1.O=S(=O)([N-]S(=O)(=O)C(F)(F)F)C(F)(F)F: the activity coefficient worked out at 1.02 ± 0.06.
Still for that read-out and setting: the result for `Cc1cccc(C)c1` [1,3-dimethylbenzene] + COCC[N+]1(C)CCOCC1.O=S(=O)([N-]S(=O)(=O)C(F)(F)F)C(F)(F)F reads 2.99 ± 0.2; that for `C=CCCCCC` [1-heptene] + COCC[N+]1(C)CCOCC1.O=S(=O)([N-]S(=O)(=O)C(F)(F)F)C(F)(F)F, 21.7 ± 1.5; that for `COC(C)=O` [methyl ethanoate] + COCC[N+]1(C)CCOCC1.O=S(=O)([N-]S(=O)(=O)C(F)(F)F)C(F)(F)F, 0.714 ± 0.048.
